Test results reported in patent US12234230B2, “Substituted benzyl-triazole compounds for Cbl-b inhibition, and further uses thereof” (Nurix Therapeutics, Inc., priority 2019, dated 2025).
Like-named read-outs stand apart in the source and are kept apart here.

Key:
Cbl-b = Cbl-b (Homo sapiens (Human), UniProt Q13191); test: Cbl-b displacement assay (Cbl-b inhibition assay), Biological Example 1; format: binding
Description: The ability of candidate compounds to displace a known inhibitor and thereby inhibit Cbl-b activity was measured by monitoring the interaction of Cbl-b with a fluorophore-labeled probe in the presence of the candidate compound.
Following the one hour incubation, the plates were read for TR-FRET signal at 520/620 nm using an Envision plate reader (Perkin Elmer).

[1] = system: primary human total T-cells; test: Primary human total T-cell activation (IL-2 secretion, CD25 surface staining), Biological Example 2; conditions: fold change over baseline; for CD25 staining CD3/CD28 0.3 μM / IL-2 secretion CD3/CD28 0.3 μM: 0.3 μM inhibitor; for CD25 staining CD3/CD28 0.3 μM / IL-2 secretion CD3/CD28 0.3 μM / CD25 staining CD3/CD28 1 μM / IL-2 secretion CD3/CD28 1 μM: anti-CD3 and anti-CD28 co-stimulation; for CD25 staining CD3/CD28 1 μM / IL-2 secretion CD3/CD28 1 μM / CD25 staining CD3 1 μM / IL-2 secretion CD3 1 μM: 1 μM inhibitor; for CD25 staining CD3 1 μM / IL-2 secretion CD3 1 μM / CD25 staining CD3 3 μM / IL-2 secretion CD3 3 μM: anti-CD3 stimulation alone; for CD25 staining CD3 3 μM / IL-2 secretion CD3 3 μM: 3 μM inhibitor
Description: Peripheral blood mononuclear cells (PBMC) were obtained either: 1) by using Ficoll-Paque™ (GE Healthcare) for separation of peripheral blood hematopoietic cells from buffy coats of healthy human donors; or 2) directly from LeukoPak donations. […] The cells were rested overnight at 37° C. 5% CO2. The Cbl-inhibitor was added to 1×10^5 cells per well and the plate was incubated for one hour at 37° C. in 5% CO2 at the concentrations indicated (Table 3) with a final DMSO concentration of <0.1%. For samples stimulated with anti-CD3 antibody and anti-CD28 antibody (anti-CD3/anti-CD28), the Cbl-b inhibitor concentrations tested were 1 μM, and 0.3 μM. For samples stimulated with anti-CD3 antibody alone (anti-CD3), the Cbl-b inhibitor concentrations tested were 3 μM, and 1 μM. […] To prepare plates with plate bound anti-CD3 antibody (OKT3), 96-well round bottom tissue culture plates were coated with 100 μL of anti-CD3 antibody (OKT3) at 10 μg/mL for 4 hours at 37° C. 5% CO2 in phosphate buffered saline (PBS). […] Cells were stimulated for 48 hours prior to harvesting the cell free supernatant and staining the cell population for surface marker assessment by flow cytometry. Supernatants were analyzed for cytokine secretion, including IL-2 by ELISA (R&D Systems, Peprotech or Life Technologies) or Luminex multiplex kits (Procarta Life Technologies) following the manufacturer's protocol. Cells were stained with anti-CD25 antibody (BD Biosciences) to assess levels of surface marker of activation.
Readouts were reported as fold change over baseline. Baseline for this study was the measurement obtained from total human T-cells stimulated with anti-CD3 antibody and with soluble anti-CD28 antibody, wherein the cells were not incubated with a Cbl-b inhibitor (Table 3).

[2] = 0.125 nM Cbl-b final concentration (Low), read-out: Cbl-b activity IC50 (Low)

Chain of Cbl-b (Q13191 36-427): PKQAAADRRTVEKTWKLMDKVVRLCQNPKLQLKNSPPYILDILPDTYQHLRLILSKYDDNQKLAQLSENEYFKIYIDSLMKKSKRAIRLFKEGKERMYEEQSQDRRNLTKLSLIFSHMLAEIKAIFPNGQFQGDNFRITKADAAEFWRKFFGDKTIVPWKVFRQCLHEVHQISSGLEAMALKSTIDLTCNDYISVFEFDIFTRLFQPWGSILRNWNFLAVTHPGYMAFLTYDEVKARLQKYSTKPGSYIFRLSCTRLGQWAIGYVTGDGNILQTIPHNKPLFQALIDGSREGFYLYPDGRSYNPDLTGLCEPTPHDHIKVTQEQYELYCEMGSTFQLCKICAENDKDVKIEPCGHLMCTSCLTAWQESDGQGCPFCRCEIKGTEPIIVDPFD

Row | SMILES | IC50 (Cbl-b; [2]) | IC50 (Cbl-b; read-out: IC50 values in the Cbl-b inhibition assay of Biological Example 1) | CD25 staining CD3/CD28 0.3 μM [1] | IL-2 secretion CD3/CD28 0.3 μM [1] | CD25 staining CD3/CD28 1 μM [1] | IL-2 secretion CD3/CD28 1 μM [1] | CD25 staining CD3 1 μM [1] | IL-2 secretion CD3 1 μM [1] | CD25 staining CD3 3 μM [1] | IL-2 secretion CD3 3 μM [1]
1 | Cn1cnnc1C(C)(c1cccc(N2Cc3c(cccc3C(F)(F)F)C2=O)c1)C1CCC1 (stereo not shown) [Compound 18, 2-(3-(1-cyclobutyl-1-(4-methyl-4H-1,2,4-triazol-3-yl)ethyl)phenyl)-4-(trifluoromethyl)isoindolin-1-one] | > 100 nM | > 100 nM | B (B indicates 1.24-1.39 fold) | C (C indicates <20 fold) | B (B indicates 1.24-1.39 fold) | C (C indicates <20 fold) | B (B indicates 1.5-2.5 fold) | C (C indicates <0.70 fold) | A (A indicates >2.5 fold) | C (C indicates <0.70 fold)
2 | C[C@@H]1CN(Cc2cc3c(c(C(F)(F)F)c2)CN(c2cccc([C@]4(c5nncn5C)C[C@H](C)C4)c2)C3=O)CCC1(F)F [Compound 20, 6-(((R)-4,4-difluoro-3-methylpiperidin-1-yl)methyl)-2-(3-((1r,3R)-3-methyl-1-(4-methyl-4H-1,2,4-triazol-3-yl)cyclobutyl)phenyl)-4-(trifluoromethyl)isoindolin-1-one] | 20 to 100 nM | – | B (B indicates 1.24-1.39 fold) | C (C indicates <20 fold) | B (B indicates 1.24-1.39 fold) | C (C indicates <20 fold) | A (A indicates >2.5 fold) | B (B indicates 0.70-1.1 fold) | A (A indicates >2.5 fold) | A (A indicates >1.1 fold)
3 | Cc1cc(C(=O)Nc2cccc([C@]3(c4nncn4C)C[C@@H](C)C3)c2)nc(C2CC2)n1 [Compound 21, 2-cyclopropyl-6-methyl-N-{3-[(1r,3s)-3-methyl-1-(4-methyl-1,2,4-triazol-3-yl)cyclobutyl]phenyl}pyrimidine-4-carboxamide] | 20 to 100 nM | – | B (B indicates 1.24-1.39 fold) | C (C indicates <20 fold) | B (B indicates 1.24-1.39 fold) | C (C indicates <20 fold) | B (B indicates 1.5-2.5 fold) | B (B indicates 0.70-1.1 fold) | B (B indicates 1.5-2.5 fold) | B (B indicates 0.70-1.1 fold)
4 | Cc1cc(C(=O)Nc2cccc([C@]3(c4nncn4C)C[C@H](C)C3)c2)nc(C2CC2)n1 [Compound 22, 2-cyclopropyl-6-methyl-N-{3-[(1s,3r)-3-methyl-1-(4-methyl-1,2,4-triazol-3-yl)cyclobutyl]phenyl}pyrimidine-4-carboxamide] | 20 to 100 nM | – | – | C (C indicates <20 fold) | – | C (C indicates <20 fold) | C (C indicates <1.5 fold) | C (C indicates <0.70 fold) | C (C indicates <1.5 fold) | C (C indicates <0.70 fold)
5 | C[C@@H]1CN(Cc2cc3c(c(C(F)(F)F)c2)CN(c2cccc([C@]4(c5nncn5C)C[C@@H](C)C4)c2)C3=O)CCO1 [Compound 24, 2-(3-((1s,3S)-3-methyl-1-(4-methyl-4H-1,2,4-triazol-3-yl)cyclobutyl)phenyl)-6-(((R)-2-methylmorpholino)methyl)-4-(trifluoromethyl)isoindolin-1-one] | 20 to 100 nM | – | – | C (C indicates <20 fold) | – | C (C indicates <20 fold) | C (C indicates <1.5 fold) | C (C indicates <0.70 fold) | C (C indicates <1.5 fold) | C (C indicates <0.70 fold)

Second part, led by results:

Row | IC50 (Cbl-b; [2]) | IC50 (Cbl-b; read-out: IC50 values in the Cbl-b inhibition assay of Biological Example 1) | SMILES | CD25 staining CD3/CD28 0.3 μM [1] | IL-2 secretion CD3/CD28 0.3 μM [1] | CD25 staining CD3/CD28 1 μM [1] | IL-2 secretion CD3/CD28 1 μM [1] | CD25 staining CD3 1 μM [1] | IL-2 secretion CD3 1 μM [1] | CD25 staining CD3 3 μM [1] | IL-2 secretion CD3 3 μM [1]
6 | 20 to 100 nM | – | C[C@@H]1CN(Cc2cc3c(c(C(F)(F)F)c2)CN(c2cccc([C@]4(c5nncn5C)C[C@@H](C)C4)c2)C3=O)CCC1(F)F [Compound 19, 6-(((R)-4,4-difluoro-3-methylpiperidin-1-yl)methyl)-2-(3-((1s,3S)-3-methyl-1-(4-methyl-4H-1,2,4-triazol-3-yl)cyclobutyl)phenyl)-4-(trifluoromethyl)isoindolin-1-one] | – | C (C indicates <20 fold) | – | C (C indicates <20 fold) | C (C indicates <1.5 fold) | C (C indicates <0.70 fold) | C (C indicates <1.5 fold) | C (C indicates <0.70 fold)
7 | 5 to 20 nM | – | C[C@H]1CCCN(Cc2cc3c(c(C4CC4)n2)CN(c2cccc([C@]4(c5nncn5C)C[C@@H](C)C4)c2)C3=O)C1 [Compound 25, 4-cyclopropyl-2-(3-((1s,3R)-3-methyl-1-(4-methyl-4H-1,2,4-triazol-3-yl)cyclobutyl)phenyl)-6-(((S)-3-methylpiperidin-1-yl)methyl)-2,3-dihydro-1H-pyrrolo[3,4-c]pyridin-1-one] | B (B indicates 1.24-1.39 fold) | C (C indicates <20 fold) | B (B indicates 1.24-1.39 fold) | C (C indicates <20 fold) | B (B indicates 1.5-2.5 fold) | B (B indicates 0.70-1.1 fold) | B (B indicates 1.5-2.5 fold) | B (B indicates 0.70-1.1 fold)
8 | 5 to 20 nM | – | C[C@@H]1CN(Cc2cc3c(c(C4CC4)n2)CN(c2cccc([C@]4(c5nncn5C)C[C@@H](C)C4)c2)C3=O)CCC1(F)F [Compound 26, 4-cyclopropyl-6-(((R)-4,4-difluoro-3-methylpiperidin-1-yl)methyl)-2-(3-((1s,3S)-3-methyl-1-(4-methyl-4H-1,2,4-triazol-3-yl)cyclobutyl)phenyl)-2,3-dihydro-1H-pyrrolo[3,4-c]pyridin-1-one] | B (B indicates 1.24-1.39 fold) | C (C indicates <20 fold) | – | B (B indicates 20-35 fold) | A (A indicates >2.5 fold) | A (A indicates >1.1 fold) | A (A indicates >2.5 fold) | A (A indicates >1.1 fold)
9 | 5 to 20 nM | – | CC[C@H]1CN(Cc2cc3c(c(C(F)(F)F)c2)CN(c2cccc([C@]4(c5nncn5C)C[C@@H](C)C4)c2)C3=O)CCO1 [Compound 27, 6-(((S)-2-ethylmorpholino)methyl)-2-(3-((1s,3R)-3-methyl-1-(4-methyl-4H-1,2,4-triazol-3-yl)cyclobutyl)phenyl)-4-(trifluoromethyl)isoindolin-1-one] | B (B indicates 1.24-1.39 fold) | C (C indicates <20 fold) | – | B (B indicates 20-35 fold) | C (C indicates <1.5 fold) | C (C indicates <0.70 fold) | C (C indicates <1.5 fold) | C (C indicates <0.70 fold)
10 | 5 to 20 nM | – | C[C@@H]1CN(Cc2cc3c(c(C4CC4)n2)CN(c2cccc([C@]4(c5nncn5C)C[C@@H](C)C4)c2)C3=O)CCO1 [Compound 29, 4-cyclopropyl-2-(3-((1s,3S)-3-methyl-1-(4-methyl-4H-1,2,4-triazol-3-yl)cyclobutyl)phenyl)-6-(((R)-2-methylmorpholino)methyl)-2,3-dihydro-1H-pyrrolo[3,4-c]pyridin-1-one] | B (B indicates 1.24-1.39 fold) | C (C indicates <20 fold) | B (B indicates 1.24-1.39 fold) | B (B indicates 20-35 fold) | A (A indicates >2.5 fold) | A (A indicates >1.1 fold) | B (B indicates 1.5-2.5 fold) | B (B indicates 0.70-1.1 fold)
11 | 5 to 20 nM | – | C[C@@H]1CN(Cc2cc3c(c(C(F)(F)F)c2)CN(c2cccc([C@]4(c5nncn5C)C[C@@H](O)C4)c2)C3=O)CCC1(F)F [Compound 31, 6-(((R)-4,4-difluoro-3-methylpiperidin-1-yl)methyl)-2-(3-((1s,3S)-3-hydroxy-1-(4-methyl-4H-1,2,4-triazol-3-yl)cyclobutyl)phenyl)-4-(trifluoromethyl)isoindolin-1-one] | – | C (C indicates <20 fold) | – | C (C indicates <20 fold) | C (C indicates <1.5 fold) | C (C indicates <0.70 fold) | B (B indicates 1.5-2.5 fold) | C (C indicates <0.70 fold)
12 | 5 to 20 nM | – | C[C@H]1CCCN(Cc2cc3c(c(C(F)(F)F)c2)CN(c2cccc([C@]4(c5nncn5C)C[C@@H](O)C4)c2)C3=O)C1 [Compound 32, 2-(3-((1s,3R)-3-hydroxy-1-(4-methyl-4H-1,2,4-triazol-3-yl)cyclobutyl)phenyl)-6-(((S)-3-methylpiperidin-1-yl)methyl)-4-(trifluoromethyl)isoindolin-1-one] | – | B (B indicates 20-35 fold) | – | A (A indicates >35 fold) | A (A indicates >2.5 fold) | A (A indicates >1.1 fold) | A (A indicates >2.5 fold) | A (A indicates >1.1 fold)
